Measurements as given in ChEMBL document CHEMBL4371047, “Effect of α-Methoxy Substitution on the Anti-HIV Activity of Dihydropyrimidin-4(3 H)-ones” (J Med Chem, 2019).

Key:
[1] = Therapeutic index, ratio of CC50 for human MT4 cells to EC50 for HIV-1 NL4-3 infected in human MT4 cells; assay type: toxicity, cell-based; conditions: read-out: Ratio CC50/EC50
[2] = Cytotoxicity against human MT4 cells assessed as reduction in cell viability after 5 days by MTT assay; assay type: cell-based
[3] = test system: Human immunodeficiency virus 1; experiment: Antiviral activity against HIV-1 IRLL98 harboring reverse transcriptase M41L, D67N, Y181C, M184V, R211K, and T215Y mutants infected in human MT4 cells assessed as inhibition of virus-induced cytopathic effect after 5 days by MTT assay; assay type: functional, organism-based; conditions: Human immunodeficiency virus 1, IRLL98, MT4, 120 h
[4] = test system: Human immunodeficiency virus 1; experiment: Resistance index, ratio of EC50 for HIV-1 IRLL98 harboring reverse transcriptase M41L, D67N, Y181C, M184V, R211K, and T215Y mutants to EC50 for wild type HIV-1 NL4-3; assay type: functional
[5] = test system: Human immunodeficiency virus 1; experiment: Resistance index, ratio of EC50 for HIV-1 harboring reverse transcriptase Y181C mutant to EC50 for wild type HIV-1 NL4-3; assay type: functional
[6] = molecular target: Human immunodeficiency virus type 1 reverse transcriptase (Human immunodeficiency virus 1) (UniProt Q72547)
Description: Inhibition of recombinant wild type HIV-1 His-tagged reverse transcriptase p66/p51 expressed in Escherichia coli assessed as reduction in [3H]dTTP incorporation using poly(rA)/oligo(dT) as template/primer after 20 mins by scintillation counting analysis

[7] = test system: Human immunodeficiency virus type 1 reverse transcriptase (Human immunodeficiency virus 1), Q72547 [K103N]
Description: Inhibition of recombinant HIV-1 His-tagged reverse transcriptase p66/p51 K103N mutant expressed in Escherichia coli assessed as reduction in [3H]dTTP incorporation using poly(rA)/oligo(dT) as template/primer after 20 mins by scintillation counting analysis

[8] = test system: Human immunodeficiency virus type 1 reverse transcriptase (Human immunodeficiency virus 1), Q72547 [L100I]
[9] = test system: Human immunodeficiency virus 1; experiment: Antiviral activity against wild type HIV 1 NL4-3 infected in human MT4 cells assessed as inhibition of virus-induced cytopathic effect after 5 days by MTT assay; assay type: functional, organism-based; conditions: Human immunodeficiency virus 1, NL4-3, MT4, 120 h
[10] = test system: Human immunodeficiency virus 1; experiment: Antiviral activity against HIV 1 harboring reverse transcriptase Y181C mutant infected in human MT4 cells assessed as inhibition of virus-induced cytopathic effect after 5 days by MTT assay; assay type: functional, organism-based; conditions: Human immunodeficiency virus 1, MT4, 120 h
[11] = test system: Human immunodeficiency virus 1; experiment: Antiviral activity against HIV-1 harboring reverse transcriptase Y188L mutant infected in human MT4 cells assessed as inhibition of virus-induced cytopathic effect after 5 days by MTT assay; assay type: functional, organism-based; conditions: Human immunodeficiency virus 1, MT4, 120 h
[12] = test system: Human immunodeficiency virus 1; experiment: Antiviral activity against HIV-1 harboring reverse transcriptase K103N mutant infected in human MT4 cells assessed as inhibition of virus-induced cytopathic effect after 5 days by MTT assay; assay type: functional, organism-based; conditions: Human immunodeficiency virus 1, MT4, 120 h
[13] = test system: Human immunodeficiency virus 1; experiment: Resistance index, ratio of EC50 for HIV-1 harboring reverse transcriptase Y188L mutant to EC50 for wild type HIV-1 NL4-3; assay type: functional
[14] = test system: Human immunodeficiency virus 1; experiment: Resistance index, ratio of EC50 for HIV-1 harboring reverse transcriptase K103N mutant to EC50 for wild type HIV-1 NL4-3; assay type: functional
[15] = test system: Human immunodeficiency virus 1; experiment: Resistance index, ratio of ID50 for recombinant HIV-1 His-tagged reverse transcriptase p66/p51 K103N mutant to ID50 for recombinant wild type HIV-1 reverse transcriptase His-tagged p66/p51
[16] = test system: Human immunodeficiency virus 1; experiment: Resistance index, ratio of ID50 for recombinant HIV-1 His-tagged reverse transcriptase p66/p51 Y181I mutant to ID50 for recombinant wild type HIV-1 reverse transcriptase His-tagged p66/p51
[17] = test system: Human immunodeficiency virus 1; experiment: Resistance index, ratio of ID50 for recombinant HIV-1 His-tagged reverse transcriptase p66/p51 L100I mutant to ID50 for recombinant wild type HIV-1 reverse transcriptase His-tagged p66/p51
[18] = test system: Human immunodeficiency virus type 1 reverse transcriptase (Human immunodeficiency virus 1), Q72547 [Y181I]
[19] = test system: Human immunodeficiency virus 1; experiment: Antiviral activity against HIV-1 harboring reverse transcriptase K103N/Y181C double mutant infected in human MT4 cells assessed as inhibition of virus-induced cytopathic effect after 5 days by MTT assay; assay type: functional, organism-based; conditions: Human immunodeficiency virus 1, MT4, 120 h

Structure (SMILES) | selectivity ratio [1] | CC50 at 120 h [2] [nM] | EC50 [3] [nM] | Ratio EC50 [4] | Ratio EC50 [5] | ID50 [6] [nM] | ID50 [7] [nM] | ID50 [8] [nM] | EC50 [9] [nM] | EC50 [10] [nM] | EC50 [11] [nM] | EC50 [12] [nM] | Ratio EC50 [13] | Ratio EC50 [14] | Ratio [15] | Ratio [16] | Ratio [17] | ID50 [18] [nM] | EC50 [19] [nM]
CCC(c1nc(SC2CCCC2)[nH]c(=O)c1C)c1c(F)cccc1F (stereo unspecified) | 2730 | 30000 | 750 | 68 | 100 | 5 | 380 | 110 | – | – | – | – | – | – | – | – | – | – | –
CCCN(C)c1nc(C(C)c2c(F)cccc2F)c(C)c(=O)[nH]1 (stereo unspecified) | > 41000 | > 78000 | 7 | 4 | 9 | – | – | – | 1.9 | 17 | 49 | 16 | 26 | 9 | 6 | 40 | 6 | – | –
COC(c1nc(NC(C)C)[nH]c(=O)c1C)c1c(F)cccc1F (stereo unspecified) | > 5810 | > 81400 | 70 | 5 | 10 | 57 | 620 | 1100 | 14 | 140 | 6600 | 230 | 471 | 16 | 11 | 33 | 19 | 1900 | –
Cc1cc(C)c(Nc2ccnc(Nc3ccc(C#N)cc3)n2)c(C)c1 [DAPIVIRINE] | – | – | 6 | – | – | – | – | – | 0.6 | – | – | 2.2 | – | – | – | – | – | – | –
Cc1c(C(C)c2c(F)cccc2Cl)nc(SC2CCCC2)[nH]c1=O (stereo unspecified) | > 500000 | > 15000 | 68 | 2267 | – | 11 | 1300 | 120 | – | – | – | – | – | – | – | – | – | – | –
COC(c1nc(SC2CCCC2)[nH]c(=O)c1C)c1c(F)cccc1F (stereo unspecified) | – | 34300 | 840 | 29 | 93 | 14 | 260 | 910 | 29 | 2700 | 3200 | 2800 | 110 | 97 | 19 | 41 | 65 | 570 | –
COC(c1nc(SC(C)C)[nH]c(=O)c1C)c1c(F)cccc1F (stereo unspecified) | > 1470 | > 25000 | 520 | 31 | 33 | 8 | 130 | 570 | 17 | 560 | 2900 | 1100 | 171 | 65 | 16 | 1140 | 71 | 9100 | –
Cc1ccnc2c1NC(=O)c1cccnc1N2C1CC1 [NEVIRAPINE] | – | > 7000 | – | – | – | – | – | 8500 to 9000 | – | – | > 7000 | – | – | – | – | – | – | 33000 to 35000 | > 7000
Cc1c(C(C)c2c(F)cccc2F)nc(NC(C)C)[nH]c1=O (stereo unspecified) | 10000 | 200000 | 150 | 7 | 17 | 35 | 400 | 250 | 20 | 350 | > 10000 | 890 | – | 44 | 11 | 101 | 7 | 3520 | –
Cc1c(O)nc(SC(C)C)nc1C(C)c1c(F)cccc1F (stereo unspecified) | – | – | 145 | 145 | – | 3 | 580 | 280 | – | – | – | – | – | – | – | – | – | – | –
CCCNc1nc(C(OC)c2c(F)cccc2F)c(C)c(=O)[nH]1 (stereo unspecified) | 16300 | 81400 | 16 | 3 | 20 | 40 | 220 | 980 | 5 | 98 | 3500 | 32 | 700 | 6 | 5 | 42 | 24 | 1700 | –
Cc1c(C(C)c2c(F)cccc2F)nc(SC2CCCC2)[nH]c1=O (stereo unspecified) | > 3000 | > 3000 | 120 | 120 | 100 | 5 | 300 | 300 | 1 | – | – | 230 | – | – | 60 | 180 | 60 | 900 | –
COC(c1nc(SC2CCCC2)[nH]c(=O)c1C)c1c(F)cccc1Cl (stereo unspecified) | 52600 | 36800 | 12 | 17 | 229 | 7 | 150 | 2300 | 0.7 | 160 | 860 | 70 | 1229 | 100 | 21 | 543 | 329 | 3800 | –
CCC(C)Sc1nc(C(OC)c2c(F)cccc2F)c(C)c(=O)[nH]1 (stereo unspecified) | 3020 | 27200 | 240 | 27 | 41 | 3 | 1500 | 280 | 9 | 370 | 2800 | 1600 | 311 | 178 | 500 | 1800 | 93 | 5400 | –
CCC(c1nc(SC(C)C)[nH]c(=O)c1C)c1c(F)cccc1F (stereo unspecified) | > 7500 | > 30000 | 280 | 70 | – | 4 | 310 | 210 | – | – | – | – | – | – | – | – | – | – | –
CCC(C)Sc1nc(C(CC)c2c(F)cccc2F)c(C)c(=O)[nH]1 (stereo unspecified) | > 3750 | > 3000 | 150 | 187 | – | 6 | 140 | 48 | – | – | – | – | – | – | – | – | – | – | –
COC(c1nc(NC2CCCC2)[nH]c(=O)c1C)c1c(F)cccc1Cl (stereo unspecified) | 10000 | 70300 | – | – | 56 | 40 | 120 | 1100 | 7 | 390 | 3700 | 170 | 529 | 24 | 3 | 37 | 27 | 1500 | –
CCCNc1nc(C(C)c2c(F)cccc2F)c(C)c(=O)[nH]1 (stereo unspecified) | 11700 | 35000 | 90 | 30 | 20 | 40 | 470 | 310 | – | 60 | > 10000 | – | – | – | 12 | 125 | 8 | 5020 | –
CCC(C)Sc1nc(O)c(C)c(C(C)c2c(F)cccc2F)n1 (stereo unspecified) | > 3330 | > 3000 | 79 | 88 | – | 31 | 1700 | 670 | – | – | – | – | – | – | – | – | – | – | –
